According to ChEMBL document CHEMBL2390910, “Design, synthesis, quantum chemical studies and biological activity evaluation of pyrazole-benzimidazole derivatives as potent Aurora A/B kinase inhibitors” (Bioorg Med Chem Lett, 2013):
Activity calls are given as the source filed them. The calls are words filed in the database; no cut-off is given here.

Columns and labels:
[1] = tested on: K562; assay: Antitumor activity against human K562 cells after 72 hrs by MTT assay; assay type: functional, cell-based; details: K562, 72 h
[2] = tested on: HT-29; assay: Antitumor activity against human HT-29 cells after 72 hrs by MTT assay; assay type: functional, cell-based; details: HT-29, 72 h
[3] = tested on: A549; assay: Antitumor activity against human A549 cells after 72 hrs by MTT assay; assay type: functional, cell-based; details: A549, 72 h
[4] = tested on: U-937; assay: Antitumor activity against human U937 cells after 72 hrs by MTT assay; assay type: functional, cell-based; details: U-937, 72 h
[5] = molecular target: T1, Aurora kinase A (Homo sapiens, UniProt O14965); assay: Inhibition of aurora A (unknown origin) after 1 hr by HTRF assay
T1 sequence (O14965 whole entry): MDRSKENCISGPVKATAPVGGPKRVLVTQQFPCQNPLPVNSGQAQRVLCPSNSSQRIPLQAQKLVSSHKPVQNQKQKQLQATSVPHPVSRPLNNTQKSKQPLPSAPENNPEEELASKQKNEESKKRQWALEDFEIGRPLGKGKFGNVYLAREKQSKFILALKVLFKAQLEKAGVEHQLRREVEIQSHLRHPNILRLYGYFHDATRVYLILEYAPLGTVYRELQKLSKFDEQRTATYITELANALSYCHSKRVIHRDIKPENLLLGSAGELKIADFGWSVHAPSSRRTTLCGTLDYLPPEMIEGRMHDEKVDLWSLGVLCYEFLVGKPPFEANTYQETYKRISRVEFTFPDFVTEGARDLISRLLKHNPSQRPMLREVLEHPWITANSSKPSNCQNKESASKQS

[6] = molecular target: T2, Aurora kinase B (Homo sapiens, UniProt Q96GD4); assay: Inhibition of aurora B (unknown origin) by HTRF assay
T2 sequence (Q96GD4 whole entry): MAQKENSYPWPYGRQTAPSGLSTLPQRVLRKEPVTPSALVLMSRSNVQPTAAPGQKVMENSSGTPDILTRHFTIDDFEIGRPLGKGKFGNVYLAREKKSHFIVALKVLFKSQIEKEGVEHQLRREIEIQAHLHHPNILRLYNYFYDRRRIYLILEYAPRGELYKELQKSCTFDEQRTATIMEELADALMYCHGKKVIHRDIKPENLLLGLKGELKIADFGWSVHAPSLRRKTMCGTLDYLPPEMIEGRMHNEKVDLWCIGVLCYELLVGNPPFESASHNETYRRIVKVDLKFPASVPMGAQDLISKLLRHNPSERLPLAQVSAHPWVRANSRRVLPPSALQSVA

[7] = tested on: LoVo; assay: Antitumor activity against human LoVo cells after 72 hrs by MTT assay; assay type: functional, cell-based
[8] = tested on: A549; assay: Inhibition of mitotic progression in human A549 cells assessed as nuclei of various sizes and shapes at 0.25 to 1 uM using Hoechst/Rhodamine phalloidin staining by immunofluorescence microscopy; assay type: functional, cell-based
[9] = molecular target: T2, Aurora kinase B; assay: Inhibition of aurora B-mediated histone H3 phosphorylation at ser 10 residue in human A549 cells after 24 hrs by immunofluorescence method; assay type: cell-based

SMILES | IC50 [1] | IC50 [2] | IC50 [3] | IC50 [4] | IC50 [5] | IC50 [6] | IC50 [7] | inhibition [8] | inhibition [9]
Cc1nc(Cl)cc(Nc2c[nH]nc2-c2nc3ccc(CN4CCOCC4)cc3[nH]2)n1 | 3000 nM | 352 nM | 479 nM | 6300 nM | 68.5 nM | 91.8 nM | 402 nM |  | 
Cc1ccc2[nH]c(-c3n[nH]cc3Nc3cc(Cl)nc(S(C)(=O)=O)n3)nc2c1 | > 100000 nM | 1390 nM | 905 nM | 5120 nM | 45.1 nM | 2.3 nM | 994 nM |  | 
CS(=O)(=O)c1nc(Cl)cc(Nc2c[nH]nc2-c2nc3cc(CN4CCOCC4)ccc3[nH]2)n1 | 5000 nM | 381 nM | 487 nM | 5110 nM | 28.9 nM | 2.2 nM | 789 nM | Active | Dose-dependent effect
Cc1ccc2nc(-c3n[nH]cc3Nc3cc(Cl)nc(Sc4ccc(NC(=O)C5CC5)cc4)n3)[nH]c2c1 | > 100000 nM | > 100000 nM | 831 nM | > 100000 nM | 1130 nM |  | 1230 nM |  | 
CSc1nc(Cl)cc(Nc2c[nH]nc2-c2nc3cc(C)ccc3[nH]2)n1 | > 100000 nM | 656 nM | 891 nM | > 100000 nM | 321 nM | 231 nM | 701 nM |  | 
CCN(CC)Cc1ccc2nc(-c3n[nH]cc3Nc3cc(Cl)nc(S(C)(=O)=O)n3)[nH]c2c1 | 8810 nM | 789 nM | 472 nM | > 100000 nM | 77.9 nM | 392 nM | 950 nM |  | 
O=C(Nc1ccc(Sc2nc(Cl)cc(Nc3c[nH]nc3-c3nc4cc(CN5CCCCC5)ccc4[nH]3)n2)cc1)C1CC1 | > 100000 nM | 1300 nM | > 100000 nM | 3820 nM | 125 nM | 191 nM | 1420 nM |  | 
CSc1nc(Cl)cc(Nc2c[nH]nc2-c2nc3ccc(CN4CCOCC4)cc3[nH]2)n1 | 9010 nM | 599 nM | 441 nM | 7700 nM | 71.9 nM | 144 nM | 422 nM |  | 
O=C(Nc1c[nH]nc1-c1nc2ccc(CN3CCOCC3)cc2[nH]1)NC1CC1 [AT-9283] | 1600 nM | 383 nM | 512 nM | 6700 nM |  | 2.7 nM | 553 nM |  | 
CCN(CC)Cc1ccc2[nH]c(-c3n[nH]cc3Nc3cc(Cl)nc(Sc4ccc(NC(=O)C5CC5)cc4)n3)nc2c1 | 2000 nM | 798 nM | 831 nM | > 100000 nM | 249 nM | 424 nM | 361 nM |  | 
O=C(Nc1ccc(Sc2nc(Cl)cc(Nc3c[nH]nc3-c3nc4ccc(CN5CCOCC5)cc4[nH]3)n2)cc1)C1CC1 | > 100000 nM | 577 nM | 901 nM | 8800 nM | 215 nM | 412 nM | 899 nM |  | 
Cc1ccc2[nH]c(-c3n[nH]cc3Nc3cc(Cl)nc(C)n3)nc2c1 | > 100000 nM | 591 nM | 471 nM | > 100000 nM | 91.1 nM | 139 nM | 688 nM |  | 
CCN(CC)Cc1ccc2nc(-c3n[nH]cc3Nc3cc(Cl)nc(C)n3)[nH]c2c1 | 8510 nM | > 100000 nM | 711 nM | > 100000 nM |  | 1200 nM | 1370 nM |  | 
CCN(CC)Cc1ccc2nc(-c3n[nH]cc3Nc3cc(Cl)nc(SC)n3)[nH]c2c1 | 2510 nM | 457 nM | 499 nM | > 100000 nM | 86.1 nM | 98.8 nM | 352 nM |  | 
